In ChEMBL document CHEMBL4390694, “Benzofuran-isatin hybrids tethered via different length alkyl linkers and their in vitro anti-mycobacterial activities” (Bioorg Med Chem, 2019) one finds MIC data, which are given here for 16 molecules.

Converted amounts (≈) assume the structure as drawn.

The assay relates to Mycobacterium tuberculosis. The assay is described as follows: Antimycobacterial activity against multidrug-resistant Mycobacterium tuberculosis assessed as complete inhibition of bacterial growth incubated for 7 days by rapid direct susceptibility test. The format is functional. The conditions noted are these: 168 h.
As usually defined, the MIC is the lowest concentration found to suppress growth. With `CCOC(=O)c1c(-c2ccc(F)cc2)oc2ccc(OCCCCCCN3C(=O)C(=O)c4cc(F)ccc43)cc12`, the MIC amounted to 0.25 µg/mL (≈ 0.457 µM).
As for `CNC(=O)c1c(-c2ccc(O)cc2)oc2ccc(O)c(CN3CCCCC3)c12`, the figure is less than 0.06 µg/mL; as for `CCOC(=O)c1c(-c2ccc(OC)cc2)oc2ccc(OCCCCCN3C(=O)C(=O)c4cc(F)ccc43)cc12`, 0.25 µg/mL (≈ 0.458 µM).
As for `CCOC(=O)c1c(-c2ccc(F)cc2)oc2ccc(OCCCCCN3C(=O)C(=O)c4cc(OC)ccc43)cc12`, the figure is 1 µg/mL (≈ 1.83 µM); as for `CCOC(=O)c1c(-c2ccccc2)oc2ccc(OCCCN3C(=O)C(=O)c4cc(OC)ccc43)cc12`, 0.25 µg/mL (≈ 0.5 µM).
Take `CCOC(=O)c1c(-c2ccc(OC)cc2)oc2ccc(OCCCN3C(=O)C(=O)c4cc(F)ccc43)cc12`: the MIC amounted to 0.25 µg/mL (≈ 0.483 µM).
As for `CCOC(=O)c1c(-c2ccc(OC)cc2)oc2ccc(OCCCN3C(=O)C(=O)c4ccccc43)cc12`, the figure is 1 µg/mL (≈ 2 µM); as for `CCOC(=O)c1c(-c2ccc(F)cc2)oc2ccc(OCCCN3C(=O)C(=O)c4ccccc43)cc12`, 1 µg/mL (≈ 2.05 µM).
As for `CCOC(=O)c1c(-c2ccc(OC)cc2)oc2ccc(OCCCCN3C(=O)C(=O)c4cc(OC)ccc43)cc12`, the figure is 4 µg/mL (≈ 7.36 µM).
Then `CCOC(=O)c1c(-c2ccc(OC)cc2)oc2ccc(OCCCCCCN3C(=O)C(=O)c4ccccc43)cc12`, with 0.125 µg/mL (≈ 0.231 µM); and `CCOC(=O)c1c(-c2ccc(OC)cc2)oc2ccc(OCCCCCCN3C(=O)C(=O)c4cc(F)ccc43)cc12`, with 0.125 µg/mL (≈ 0.223 µM).
With `CCOC(=O)c1c(-c2ccc(OC)cc2)oc2ccc(OCCCCN3C(=O)C(=O)c4ccccc43)cc12`, the MIC turned out to be 1 µg/mL (≈ 1.95 µM).
On to `CCOC(=O)c1c(-c2ccc(F)cc2)oc2ccc(OCCCN3C(=O)C(=O)c4cc(F)ccc43)cc12`, for which the MIC stood at 1 µg/mL (≈ 1.98 µM).
As for `CCOC(=O)c1c(-c2ccc(F)cc2)oc2ccc(OCCCN3C(=O)C(=O)c4cc(OC)ccc43)cc12`, the MIC stood at 2 µg/mL (≈ 3.86 µM).
As for `NNC(=O)c1ccncc1` [ISONIAZID], the figure is more than 128 µg/mL.
As for `CO[C@H]1/C=C/O[C@@]2(C)Oc3c(C)c(O)c4c(O)c(c(/C=N/N5CCN(C)CC5)c(O)c4c3C2=O)NC(=O)/C(C)=C\C=C\[C@H](C)[C@H](O)[C@@H](C)[C@@H](O)[C@@H](C)[C@H](OC(C)=O)[C@@H]1C` [RIFAMPIN], the figure is 64 µg/mL (≈ 77.8 µM).
